The text below walks through data of US20250066335A1, “POLYSUBSTITUTED 4-HYDROXYPYRIDINE AND 4-HYDROXYQUINOLINE DERIVATIVES AS GPR84 ANTAGONISTS” (UNIVERSITY OF COPENHAGEN, priority 2021, published 2025).

Structures are written as SMILES. pIC50: −log10 of the molar value. Where a name gives a salt, the structure may show the parent alone.

This assay has as its target T1, GPR84 (Homo sapiens, UniProt Q9NQS5).
T1 construct: expressed in transfected cells; host or cells: HTLA cells (HEK293 line stably expressing a tTA-dependent luciferase reporter and a β-arrestin2-TEV fusion gene), transiently transfected with PEI
In words: PRESTO-Tango β-arrestin2 recruitment assay, GPR84 antagonistic activity. It counts as cell-based. The settings on record: antagonist activity in the Presto-TANGO assay; inhibition of the response from the agonist ZQ-16 (100 nM); HTLA cells. The protocol: PRESTO-Tango β-arrestin recruitment assay (W.K. Kroeze et al., 2015). HTLA cells (a HEK293 cell line stably expressing a tTA-dependent luciferase reporter and a β-arrestin2-TEV fusion gene) were maintained in Dulbecco's Modified Eagle's Medium (DMEM) supplemented with 10% Fetal Bovine Serum (dFBS), 100 U/mL penicillin and 100 μg/mL streptomycin, 2 μg/mL puromycin and 100 μg/mL hygromycin B in a humidified atmosphere at 37° C. in 5% CO2. For transfection, cells were plated at 9×10^6 to 10×10^6 cells per 15-cm cell-culture dish (day 1). The following day (day 2), cells were transfected by adding 5 μg DNA and 15 μg polyethylenimine (PEI) diluted in 1 mL Opti-MEM (Reduced Serum Medium supplied by ThermoFisher). On day 3, transfected cells were transferred at 25000 cells per well in 40 μl of medium into poly-l-lysine-coated and rinsed 384-well white, clear-bottomed cell-culture plates (Greiner Bio-One). On day 4, dilutions of the ligands to be tested were prepared in 1% dFBS DMEM and 10 μL were added to each well. On day 5, 20 μl per well of Bright-Glo solution (Promega) diluted 10-fold in assay buffer (Hanks' Balanced Salt Solution [HBSS], 20 mM HEPES, 1 mM CaCl2, 1 mM MgCl2, pH adjusted to 7.4 by 5 M NaOH) was added to each well. After incubation for 20 min at room temperature, luminescence was counted in an Enspire luminescence counter at 384 nm. Results in the form of relative luminescence units (RLU) were exported into Excel spreadsheets, and GraphPad Prism was used for analysis of data. To measure constitutive activity, no ligand was added on day 4.
The GPR84 antagonistic activity of the compounds was determined using the PRESTO-Tango β-arrestin2 recruitment assay (Assay I, see assays above), from which the concentration of each compound required for 50% inhibition (IC50) of the response from the agonist ZQ-16 (100 nM) was determined. The antagonistic activity for each compound is given in Table 1 as the pIC50, which is the negative log of the IC50 value when converted to molar.

T1 sequence (Q9NQS5 whole entry, the tested form may be a part): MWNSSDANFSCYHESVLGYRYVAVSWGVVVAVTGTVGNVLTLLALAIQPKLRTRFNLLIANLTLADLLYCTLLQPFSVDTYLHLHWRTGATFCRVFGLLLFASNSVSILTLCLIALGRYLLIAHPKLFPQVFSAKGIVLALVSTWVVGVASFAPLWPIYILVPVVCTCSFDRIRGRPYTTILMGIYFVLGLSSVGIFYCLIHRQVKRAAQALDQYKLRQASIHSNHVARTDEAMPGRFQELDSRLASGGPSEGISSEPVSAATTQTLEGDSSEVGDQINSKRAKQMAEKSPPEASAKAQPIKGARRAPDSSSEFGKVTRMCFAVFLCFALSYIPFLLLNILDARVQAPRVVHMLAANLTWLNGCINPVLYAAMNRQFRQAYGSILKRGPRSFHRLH

In the case of `CCOc1ncc(CCc2nc(OCC3COCCO3)cc(O)c2CC)cc1F` (stereo not shown) [Example 50, 6-((1,4-Dioxan-2-yl)methoxy)-2-(2-(6-ethoxy-5-fluoropyridin-3-yl)ethyl)-3-ethylpyridin-4-ol], the pIC50 was 8.89.
Molecule `CCc1c(O)cc(OCC2COCCO2)nc1CCc1ccc(OCCN)cc1` (stereo not shown) [Example 45, 6-((1,4-Dioxan-2-yl)methoxy)-2-(4-(2-aminoethoxy)phenethyl)-3-ethylpyridin-4-ol hydrochloride] gave a pIC50 of 8.63. This pIC50 lies 0.26 log units lower than the previous one.
For `CCCc1ccc(CCc2nc(OCC3CCCCO3)cc(O)c2/C=C/C(=O)OCC)cc1` (stereo not shown) [Example 12, Ethyl (E)-3-(4-hydroxy-2-(4-propylphenethyl)-6-((tetrahydro-2H-pyran-2-yl)methoxy)pyridin-3-yl)acrylate] the value was 7.66; for `CCOC(=O)CCCCOc1ccc(CCc2nc(OCC3COCCO3)cc(O)c2CC)cc1` (stereo not shown) [Example 36, Ethyl 5-(4-(2-(6-((1,4-dioxan-2-yl)methoxy)-3-ethyl-4-hydroxypyridin-2-yl)ethyl)phenoxy)pentanoate], 9.59.
For `CCCc1ccc(CCc2nc(OCC3COCCO3)cc(O)c2CC)cc1` (stereo not shown) [Example 25, 6-((1,4-Dioxan-2-yl)methoxy)-3-ethyl-2-(4-propylphenethyl)pyridin-4-ol] the value was 9.11.
For `CCc1c(O)cc(OCC2COCCO2)nc1CCc1ccc(OCc2nc(C(=O)OC)co2)cc1` (stereo not shown) [Example 41, Methyl 2-((4-(2-(6-((1,4-dioxan-2-yl)methoxy)-3-ethyl-4-hydroxypyridin-2-yl)ethyl)phenoxy)methyl)oxazole-4-carboxylate] the value was 9.12.
The molecule `CCOc1ccc(CCc2nc(OCC3COCCO3)cc(O)c2CC)cc1` (stereo not shown) [Example 26, 6-((1,4-Dioxan-2-yl)methoxy)-2-(4-ethoxyphenethyl)-3-ethylpyridin-4-ol] showed a pIC50 of 9.41.
The molecule `CCc1c(O)cc(OCC2COCCO2)nc1CCc1ccc(OCCO)cc1` (stereo not shown) [Example 35, 6-((1,4-Dioxan-2-yl)methoxy)-3-ethyl-2-(4-(2-hydroxyethoxy)phenethyl)pyridin-4-ol] showed a pIC50 of 9.13.
On to `CCCc1ccc(CCc2nc(OCC3CCCCO3)cc(O)c2CCCO)cc1` (stereo not shown) [Example 15, 3-(3-Hydroxypropyl)-2-(4-propylphenethyl)-6-((tetrahydro-2H-pyran-2-yl)methoxy)pyridin-4-ol], for which the pIC50 is 8.77.
`CCc1c(O)cc(OC[C@@H]2COCCO2)nc1CCc1ccc(OC)c(OC)c1` [Example 52, (S)-6-((1,4-dioxan-2-yl)methoxy)-2-(3,4-dimethoxyphenethyl)-3-ethylpyridin-4-ol]: the pIC50 is 8.90.
The molecule `CCc1c(O)cc(OC[C@@H]2COCCO2)nc1CCCCc1ccccc1` [Example 56, (S)-6-((1,4-dioxan-2-yl)methoxy)-3-ethyl-2-(4-phenylbutyl)pyridin-4-ol] showed a pIC50 of 7.63.
To `CCc1c(O)cc(OCC2COCCO2)nc1CCc1ccc(OCCNC(=O)OC(C)(C)C)cc1` (stereo not shown) [Example 32, tert-Butyl (2-(4-(2-(6-((1,4-dioxan-2-yl)methoxy)-3-ethyl-4-hydroxypyridin-2-yl)ethyl)phenoxy)ethyl)carbamate] belongs 9.68; to `CCc1c(O)cc(OCC2COCCO2)nc1CCc1ccc(OCC(N)=O)cc1` (stereo not shown) [Example 37, 2-(4-(2-(6-((1,4-Dioxan-2-yl)methoxy)-3-ethyl-4-hydroxypyridin-2-yl)ethyl)phenoxy)acetamide], 8.54.
In the case of `CCc1c(O)cc(OCC2COCCO2)nc1CCc1ccc(OCCCCC(=O)O)cc1` (stereo not shown) [Example 47, 5-(4-(2-(6-((1,4-Dioxan-2-yl)methoxy)-3-ethyl-4-hydroxypyridin-2-yl)ethyl)phenoxy)pentanoic acid], the pIC50 is 8.39.
As to `CCOc1ccc(-c2ccc3c(O)cc(OCC4CCCCO4)nc3c2)cc1` (stereo not shown) [Example 5, 7-(4-Ethoxyphenyl)-2-((tetrahydro-2H-pyran-2-yl)methoxy)quinolin-4-ol], the pIC50 was 6.14. Against the preceding molecule, the pIC50 is 2.25 log units lower.
For `CCc1c(O)cc(OCC2COCCO2)nc1CCc1ccc(OCCN2C(=O)c3ccccc3C2=O)cc1` (stereo not shown) [Example 42, 2-(2-(4-(2-(6-((1,4-Dioxan-2-yl)methoxy)-3-ethyl-4-hydroxypyridin-2-yl)ethyl)phenoxy)ethyl)isoindoline-1,3-dione] the value was 9.01; for `Cc1c(O)cc(OCC2COCCO2)nc1CCc1ccc(OCCN)cc1` (stereo not shown) [Example 29, 2-(4-(2-(6-((1,4-Dioxan-2-yl)methoxy)-4-hydroxy-3-methylpyridin-2-yl)ethyl)phenoxy)ethan-1-aminium chloride], 7.79; for `CCc1c(O)cc(OC[C@@H]2COCCO2)nc1CCc1ccc(OC)cc1OC` [Example 53, (S)-6-((1,4-dioxan-2-yl)methoxy)-2-(2,4-dimethoxyphenethyl)-3-ethylpyridin-4-ol], 9.45.
Regarding `[2H]C([2H])([2H])C([2H])([2H])Oc1ccc(C([2H])([2H])C([2H])([2H])c2nc(OCC3COCCO3)cc(O)c2CC)cc1` (stereo not shown) [Example 44, 6-((1,4-Dioxan-2-yl)methoxy)-2-(2-(4-(ethoxy-d5)phenyl)ethyl-1,1,2,2-d4)-3-ethylpyridin-4-ol], the pIC50 was 9.68. Against the preceding molecule, the pIC50 is 0.23 log units higher.
Molecule `CCCc1ccc(CCc2nc(OCC3CCCCO3)cc(O)c2CCc2ccccc2)cc1` (stereo not shown) [Example 11, 3-Phenethyl-2-(4-propylphenethyl)-6-((tetrahydro-2H-pyran-2-yl)methoxy)pyridin-4-ol] had a pIC50 of 6.75.
To `CCc1c(O)cc(OC[C@@H]2COCCO2)nc1CCc1ccc(OC)cc1C#N` [Example 55, (S)-2-(2-(6-((1,4-dioxan-2-yl)methoxy)-3-ethyl-4-hydroxypyridin-2-yl)ethyl)-5-methoxybenzonitrile] belongs 9.26.
For `CCCc1ccc(CCc2nc(OCC3CCCCO3)cc(O)c2CCC)cc1` (stereo not shown) [Example 7, 3-Propyl-2-(4-propylphenethyl)-6-((tetrahydro-2H-pyran-2-yl)methoxy)pyridin-4-ol] the value was 8.18; for `CCCc1ccc(CCc2nc(OCC3CCCCO3)cc(O)c2CCC(=O)O)cc1` (stereo not shown) [Example 14, Sodium 3-(4-hydroxy-2-(4-propylphenethyl)-6-((tetrahydro-2H-pyran-2-yl)methoxy)pyridin-3-yl)propanoate], 8.95; for `CCCc1ccc(CCc2nc(OCC3CCCCO3)cc(O)c2-c2ccc(C(=O)O)cc2)cc1` (stereo not shown) [Example 21, 4-(4-Hydroxy-2-(4-propylphenethyl)-6-((tetrahydro-2H-pyran-2-yl)methoxy)pyridin-3-yl)benzoic acid], 6.85.
To `CCCc1ccc(CCc2nc(OCC3CCCCO3)cc(O)c2-c2ccc(C(=O)OC)cc2)cc1` (stereo not shown) [Example 20, Methyl 4-(4-hydroxy-2-(4-propylphenethyl)-6-((tetrahydro-2H-pyran-2-yl)methoxy)pyridin-3-yl)benzoate] belongs 6.84.

As a reminder, the pIC50 is the negative decadic logarithm of the IC50, by convention in mol/L.
